Experiments:
[1] = test system: influenza A virus strain WSN-HK
[2] = test system: MDCK cells
[3] = test system: influenza B virus strain Massachusetts/6/93
[4] = test system: influenza B viruses/Massachusetts/6/92 (B/Mass)
[5] = human, in vivo; cited from earlier work

SMILES | reduction of the number of newly formed infectious virus particles [1] | cytotoxic effect on the cells [2] | reduction of the number of newly formed infectious virus particles [3] | titer of infectious virus particles over infection sequences [4] | MTD [5] [mg/m^2/dx3]
N#CC(=C(N)Sc1ccccc1N)C(C#N)=C(N)Sc1ccccc1N [U0126, 1,4-diamino-2,3-dicyano-1,4-bis(2-aminophenylthio)butadiene] | approx. 80% | neither solvent nor inhibitor have a significant cytotoxic effect | approx. 90% | significant reduction of the influenza virus particles | 
CN1CC[C@H](c2c(O)cc(O)c3c(=O)cc(-c4ccccc4Cl)oc23)[C@H](O)C1 [flavopiridol] |  |  |  |  | 50

Source: patent US20100239563A1 (priority 2001, published 2010)
